Laboratory results published in US10689377B2 (Mirati Therapeutics, Inc., priority 2017, dated 2020).
Counter-ions that a name gives are not always drawn.

Biological target: KRas G12C (Homo sapiens, UniProt P01116, G12C)
Experiment: Cellular inhibition of KRas G12C measured by Phospho-ERK in NCI-H358 cells
Type: cell-based
Details: pERK(Thr202/Tyr204) normalized with GAPDH, NCI-H358 cells, 3 hours; read-out: IC50
Description: Cells were plated in poly-D-Lysine coated 96-well plates at a concentration of 50,000 cells/well and allowed to attach for 8-12 hours. Diluted compounds were then added at a final concentration of 0.5% DMSO. After 3 hours, the medium was removed, 150 μL of 4% formaldehyde was added and the plates were incubated for 20 minutes. The plates were washed with PBS, and permeabilized using 150 μL of ice cold 100% methanol for 10 minutes. Non-specific antibody binding to the plates was blocked using 100 μL Licor Blocking Buffer (Li-Cor Biotechnology, Lincoln Nebr.) for 1 hour at room temperature. Positive control samples and samples lacking cells were parallel processed with test samples as standards.
The amount Phospho-ERK was determined using an antibody specific for the phosphorylated form of ERK and compared to the amount of GAPDH. […] The plates were incubated for 2 hours at room temperature. The plates were washed with PBS+0.05% Tween 20.
Secondary antibodies used to visualize primary antibodies were added as follows: Anti-rabbit-680 diluted 1:1000 and Anti-mouse-800 diluted 1:1000 in Licor Block+0.05% Tween 20 and incubated for 1 hour at room temperature. The plates were washed with PBS+0.05% Tween 20. A 100 μL aliquot of PBS was added to each well and the plates were read on a LICOR AERIUS plate reader.
The pERK(Thr202/Tyr204) signal was normalized with the GAPDH signal and percent of DMSO control values were calculated. IC50 values were generated using a 4 parameter fit of the dose response curve. Key: “A”≥0.0001-≤1 μM; “B”>1 μM and ND=not determined.

Sequence of KRas G12C (P01116 1-188 isoform P01116-2 G12C): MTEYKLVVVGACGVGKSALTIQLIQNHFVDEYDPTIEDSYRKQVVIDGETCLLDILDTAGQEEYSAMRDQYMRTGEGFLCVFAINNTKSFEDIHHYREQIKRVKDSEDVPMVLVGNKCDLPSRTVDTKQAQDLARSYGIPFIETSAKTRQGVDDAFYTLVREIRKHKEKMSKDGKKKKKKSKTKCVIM

| Compound | IC50 [nM] |
| --- | --- |
| C=CC(=O)N1CCN(c2nc(OC[C@@H]3CC(F)(F)CN3C)nc3c2CCN(c2cccc4ccccc24)C3)C[C@@H]1CC#N [Example 447, 2-((S)-1-Acryloyl-4-(2-(((S)-4,4-difluoro-1-methylpyrrolidin-2-yl)methoxy)-7-(naphthalen-1-yl)-5,6,7,8-tetrahydropyrido[3,4-d]pyrimidin-4-yl)piperazin-2-yl)acetonitrile] | 0.1 to 1000 |
| C=CC(=O)N1CCN(c2nc(OCCCCN3CCOCC3)nc3c2CCN(c2cc(O)cc4ccccc24)C3)CC1 [Example 35, 1-(4-(7-(3-hydroxynaphthalen-1-yl)-2-(4-morpholinobutoxy)-5,6,7,8-tetrahydropyrido[3,4-d]pyrimidin-4-yl)piperazin-1-yl)prop-2-en-1-one trifluoroacetate] | > 1000 |
| C=CC(=O)N1CCN(c2nc(OC[C@@H]3CCCN3C)nc3c2CCN(c2cccc4cccc(C)c24)C3)CC1CC#N (stereo partly drawn) [Example 309, 2-(1-acryloyl-4-(7-(8-methylnaphthalen-1-yl)-2-(((S)-1-methylpyrrolidin-2-yl)methoxy)-5,6,7,8-tetrahydropyrido[3,4-d]pyrimidin-4-yl)piperazin-2-yl)acetonitrile] | 0.1 to 1000 |
| C=CC(=O)N1CCN(c2nc(OC[C@H]3CCCN3C)nc3c2CCN(c2cc(O)cc4ccccc24)C3)C[C@@H]1CC#N [Example 344, 2-[(2S)-4-[7-(3-hydroxy-1-naphthyl)-2-[[(2R)-1-methylpyrrolidin-2-yl]methoxy]-6,8-dihydro-5H-pyrido[3,4-d]pyrimidin-4-yl]-1-prop-2-enoyl-piperazin-2-yl]acetonitrile] | 0.1 to 1000 |
| C=C(F)C(=O)N1CCN(c2nc(OC[C@@H]3CCCN3C)nc3c2CCN(c2c(C)c(C)cc4[nH]ncc24)C3)C[C@@H]1CC#N [Example 521, 2-[(2S)-4-[7-(5,6-dimethyl-1H-indazol-4-yl)-2-[[(2S)-1-methylpyrrolidin-2-yl]methoxy]-6,8-dihydro-5H-pyrido[3,4-d]pyrimidin-4-yl]-1-(2-fluoroprop-2-enoyl)piperazin-2-yl]acetonitrile] | 0.1 to 1000 |
| C=CC(=O)N1CCN(c2nc(OCCCN3C[C@@H]4C[C@H]3CO4)nc3c2CCN(c2cccc4cccc(C)c24)C3)C[C@@H]1CC#N [Example 369, 2-((S)-4-(2-(3-((1S,4S)-2-oxa-5-azabicyclo[2.2.1]heptan-5-yl)propoxy)-7-(8-methylnaphthalen-1-yl)-5,6,7,8-tetrahydropyrido[3,4-d]pyrimidin-4-yl)-1-acryloylpiperazin-2-yl)acetonitrile] | 0.1 to 1000 |
| C=CC(=O)N1CCN(c2nc(O[C@H](C)CN3CC[C@H](OC)C3)nc3c2CCN(c2cc(O)cc4ccccc24)C3)CC1 [Example 64, 1-(4-(7-(3-hydroxynaphthalen-1-yl)-2-(((R)-1-((S)-3-methoxypyrrolidin-1-yl)propan-2-yl)oxy)-5,6,7,8-tetrahydropyrido[3,4-d]pyrimidin-4-yl)piperazin-1-yl)prop-2-en-1-one] | 0.1 to 1000 |
| C=CC(=O)N1CCN(c2nc(O[C@H](C)[C@H]3CCCN3C)nc3c2CCN(c2cc(O)cc4ccccc24)C3)CC1 [Example 129, 1-[4-[7-(3-hydroxy-1-naphthyl)-2-[(1R)-1-[(2R)-1-methylpyrrolidin-2-yl]ethoxy]-6,8-dihydro-5H-pyrido[3,4-d]pyrimidin-4-yl]piperazin-1-yl]prop-2-en-1-one] | 0.1 to 1000 |
| C=CC(=O)N1CCN(c2nc(OC[C@@H]3CCCN3C)nc3c2CCN(c2cncc4ccccc24)C3)CC1CC#N (stereo partly drawn) [Example 260, 2-[4-[7-(4-isoquinolyl)-2-[[(2S)-1-methylpyrrolidin-2-yl]methoxy]-6,8-dihydro-5H-pyrido[3,4-d]pyrimidin-4-yl]-1-prop-2-enoyl-piperazin-2-yl]acetonitrile] | 0.1 to 1000 |
| C=CC(=O)N1CCN(c2nc(OC[C@@H]3C[C@@H](F)CN3C)nc3c2CCN(c2cncc(F)c2C(F)(F)F)C3)C[C@@H]1CC#N [Example 384, 2-((S)-1-acryloyl-4-(2-(((2S,4R)-4-fluoro-1-methylpyrrolidin-2-yl)methoxy)-7-(5-fluoro-4-(trifluoromethyl)pyridin-3-yl)-5,6,7,8-tetrahydropyrido[3,4-d]pyrimidin-4-yl)piperazin-2-yl)acetonitrile] | 0.1 to 1000 |
| C=CC(=O)N1CCN(c2nc(O[C@H](C)CN3CC[C@H](O)C3)nc3c2CCN(c2cc(O)cc4ccccc24)C3)CC1 [Example 65, 1-(4-(7-(3-hydroxynaphthalen-1-yl)-2-(((R)-1-((S)-3-hydroxypyrrolidin-1-yl)propan-2-yl)oxy)-5,6,7,8-tetrahydropyrido[3,4-d]pyrimidin-4-yl)piperazin-1-yl)prop-2-en-1-one] | > 1000 |
| C=CC(=O)N1CCN(c2nc(OCCN(CC)CC)nc3c2CCN(c2ccccc2C(F)(F)F)C3)CC1CC#N (centres unmarked) [Example 284, 2-(1-acryloyl-4-(2-(2-(diethylamino)ethoxy)-7-(2-(trifluoromethyl)phenyl)-5,6,7,8-tetrahydropyrido[3,4-d]pyrimidin-4-yl)piperazin-2-yl)acetonitrile] | 0.1 to 1000 |
| C=CC(=O)N1CCN(c2nc(OC[C@@H]3CCCN3C)nc3c2CCN(c2cccc4ccncc24)C3)C[C@@H]1CC#N [Example 430] | 0.1 to 1000 |
| C=CC(=O)N1CCN(c2nc(O[C@H](C)CN3CCOCC3)nc3c2CCN(c2cc(O)cc4ccccc24)C3)CC1 [Example 56, (R)-1-(4-(7-(3-hydroxynaphthalen-1-yl)-2-((1-morpholinopropan-2-yl)oxy)-5,6,7,8-tetrahydropyrido[3,4-d]pyrimidin-4-yl)piperazin-1-yl)prop-2-en-1-one] | 0.1 to 1000 |
| C=CC(=O)N1CCN(c2nc(OCCN(C)C)nc3c2CCN(c2cc(O)cc4ccccc24)C3)[C@@H](C)C1 [Example 116, (S)-1-(4-(2-(2-(dimethylamino)ethoxy)-7-(3-hydroxynaphthalen-1-yl)-5,6,7,8-tetrahydropyrido[3,4-d]pyrimidin-4-yl)-3-methylpiperazin-1-yl)prop-2-en-1-one] | 0.1 to 1000 |
| C=CC(=O)N1CCN(c2nc(OC[C@@H]3CCCN3C)nc3c2CCN(c2cccc4ccc(OC)cc24)C3)CC1CC#N (stereo partly drawn) [Example 288, 2-[4-[7-(7-methoxy-1-naphthyl)-2-[[(2S)-1-methylpyrrolidin-2-yl]methoxy]-6,8-dihydro-5H-pyrido[3,4-d]pyrimidin-4-yl]-1-prop-2-enoyl-piperazin-2-yl]acetonitrile] | > 1000 |

Results, then the compound that gave them:

| IC50 [nM] | Compound |
| --- | --- |
| > 1000 | C=CC(=O)N1CCN(c2nc(OCCCN3CCOCC3)nc3c2CCN(c2c(C)ccc4[nH]ccc24)C3)CC1 [Example 209, 1-(4-(7-(5-methyl-1H-indol-4-yl)-2-(3-morpholinopropoxy)-5,6,7,8-tetrahydropyrido[3,4-d]pyrimidin-4-yl)piperazin-1-yl)prop-2-en-1-one] |
| > 1000 | C/C=C/C(=O)N1CCN(c2nc(OC[C@@H]3CCCN3C)nc3c2CCN(c2cc(O)cc4ccccc24)C3)CC1 [Example 198, (S,E)-1-(4-(7-(3-hydroxynaphthalen-1-yl)-2-((1-methylpyrrolidin-2-yl)methoxy)-5,6,7,8-tetrahydropyrido[3,4-d]pyrimidin-4-yl)piperazin-1-yl)but-2-en-1-one] |
| > 1000 | C=CC(=O)N1CC2(C1)CN(c1nc(OCCN(C)C)nc3c1CCN(c1cc(O)cc4ccccc14)C3)C2 [Example 16, 1-(6-(2-(2-(dimethylamino)ethoxy)-7-(3-hydroxynaphthalen-1-yl)-5,6,7,8-tetrahydropyrido[3,4-d]pyrimidin-4-yl)-2,6-diazaspiro[3.3]heptan-2-yl)prop-2-en-1-one] |
| 0.1 to 1000 | C=CC(=O)N1CCN(c2nc(OC[C@@H]3CCCN3C)nc3c2CCN(c2ccccc2C(F)F)C3)CC1CC#N (some centres unmarked) [Example 449] |
| 0.1 to 1000 | C=CC(=O)N1CCN(c2nc(OC[C@H]3CCN(C)C3)nc3c2CCN(c2cc(O)cc4ccccc24)C3)CC1 [Example 188, (S)-1-(4-(7-(3-hydroxynaphthalen-1-yl)-2-((1-methylpyrrolidin-3-yl)methoxy)-5,6,7,8-tetrahydropyrido[3,4-d]pyrimidin-4-yl)piperazin-1-yl)prop-2-en-1-one] |
| 0.1 to 1000 | C=CC(=O)N1CCN(c2nc(OC[C@H]3C[C@H](O)CN3C)nc3c2CCN(c2cccc(F)c2C(F)(F)F)C3)CC1CC#N (stereo partly drawn) [Example 415, 2-(1-acryloyl-4-(7-(3-fluoro-2-(trifluoromethyl)phenyl)-2-(((2R,4S)-4-hydroxy-1-methylpyrrolidin-2-yl)methoxy)-5,6,7,8-tetrahydropyrido[3,4-d]pyrimidin-4-yl)piperazin-2-yl)acetonitrile] |
| 0.1 to 1000 | C=CC(=O)N1CCN(c2nc(OC[C@@H]3CCCN3CC(=O)N(C)C)nc3c2CCN(c2cccc4ccccc24)C3)C[C@@H]1CC#N [Example 402, 2-((S)-2-(((4-((S)-4-acryloyl-3-(cyanomethyl)piperazin-1-yl)-7-(naphthalen-1-yl)-5,6,7,8-tetrahydropyrido[3,4-d]pyrimidin-2-yl)oxy)methyl)pyrrolidin-1-yl)-N,N-dimethylacetamide] |
